The test system of series [1] is Vaccinia virus. Put plainly: Antiviral activity against Vaccinia virus. Conditions: Orthopoxvirus vaccinia. Type of series: functional, organism-based.
Series [2] is described as follows: Cytotoxicity against human MT4 cells assessed as cell viability after 96 hrs by MTT assay. In kind it is cell-based.
Series [3] in a line: Cytotoxicity against BHK cells assessed as cell viability after 48 to 96 hrs by MTT assay. In kind it is cell-based, Mesocricetus auratus. Conditions: hamster.
The test system of series [4] is Coxsackievirus B5. In words: Antiviral activity against human CVB5 infected in african green monkey Vero76 cells assessed as inhibition of virus-induced cytopathogenicity after 3 days by plaque reduction assay. In kind it is functional, organism-based. Conditions: Enterovirus B, Vero 76, 72 h.
A short description of series [5]: Cytotoxicity against MDBK cells assessed as cell viability after 48 to 96 hrs by MTT assay. Conditions: cattle. In kind it is cell-based, Bos taurus.
The test system of series [6] is Vesicular stomatitis virus. In words: Antiviral activity against VSV. In kind it is functional, organism-based.
Series [7] concerns Yellow fever virus. Put plainly: Antiviral activity against YFV infected in BHK-21 cells assessed as inhibition of virus-induced cytopathogenicity after 3 to 4 days by MTT assay. Type of series: functional, organism-based.
Series [8] in a line: Cytotoxicity against african green monkey Vero 76 cells assessed as cell viability after 48 to 96 hrs by crystal violet staining method. Type of series: cell-based. Particulars: chlorocebus sabaeus.
Series [9] concerns Human orthopneumovirus. In words: Antiviral activity against human RSV infected in african green monkey Vero76 cells assessed as inhibition of virus-induced cytopathogenicity after 5 days by plaque reduction assay. Particulars: human respiratory syncytial virus, Vero 76, 120 h. Type of series: functional, organism-based.
Series [10] concerns Human immunodeficiency virus 1. In words: Antiviral activity against HIV-1 infected in MT4 cells assessed as inhibition of virus-induced cytopathogenicity after 4 days by MTT assay. In kind it is functional, organism-based. Particulars: Human immunodeficiency virus 1, MT4, 96 h.
In series [11] the test system is Bovine viral diarrhea virus 1. In words: Antiviral activity against BVDV infected in MDBK cells assessed as inhibition of virus-induced cytopathogenicity after 3 to 4 days by MTT assay. Type of series: functional, organism-based. Particulars: Bovine viral diarrhea virus isolates and strains.

Some results are limits rather than exact numbers.

`COc1cc(/C=C/C(=O)OCCCn2nnc3ccccc32)cc(OC)c1OC`: the EC50 in series [1], in series [4], in series [6], in series [7], in series [9] and in [10] was more than 100 µM throughout. Besides, the EC50 in series [11] is more than 100 µM. Besides, the CC50 at 96 h in series [2] is more than 100 µM. Besides, the CC50 in series [3] was more than 100 µM; in [5], 83 µM; in [8], more than 100 µM.

Take `NCCn1nnc2ccccc21`: the EC50 in series [1], in [4], in series [6], in [7], in series [9] and in series [10] was more than 100 µM throughout. The EC50 in [11] was more than 100 µM. For the same molecule, the CC50 at 96 h in series [2] was more than 100 µM. In addition, the CC50 in series [3], in [5] and in series [8] was more than 100 µM throughout.

With `COc1cc(C(=O)OCCn2nc3ccccc3n2)cc(OC)c1OC`, the EC50 in [1], in series [4], in series [6], in [7], in series [9] and in series [10] was more than 100 µM throughout. Also, the 50% effective concentration (EC50) in series [11] is more than 100 µM. Moreover, the half-maximal cytotoxic concentration (CC50) at 96 h in [2] came out at 0.3 µM. In addition, the CC50 in [3] turned out to be 26 µM; in [5] it was 6 µM; in series [8], 1.6 µM.

In the case of `Clc1cc2nnn(C3CCCO3)c2cc1Cl` (stereo not drawn), the CC50 at 96 h in series [2] is more than 100 µM. Further, the CC50 in series [3] and in [5] was more than 100 µM each time. For the same molecule, the 50% effective concentration (EC50) in [7], in [10] and in [11] was more than 100 µM each time.

Take `CC(CC(=O)O)n1nc2ccc3ccccc3c2n1` (stereo not drawn): the concentration for a half-maximal effect (EC50) in series [1], in [4], in [6], in series [7], in series [9] and in series [10] was more than 100 µM each time. Besides, the EC50 in series [11] was more than 100 µM. Moreover, the CC50 at 96 h in [2] was more than 100 µM. The CC50 in [3], in series [5] and in series [8] was more than 100 µM in each case.

With `O=C(Cn1nc2ccccc2n1)N1CCOCC1`, the EC50 in series [1], in series [4], in series [6], in series [7], in [9] and in series [10] was more than 100 µM in each case. For the same molecule, the EC50 in [11] is more than 100 µM. Moreover, the half-maximal cytotoxic concentration (CC50) at 96 h in series [2] is more than 100 µM. The 50% cytotoxic concentration (CC50) in [3], in [5] and in series [8] was more than 100 µM in each case.

`COc1cc(C(=O)OCCn2nnc3ccccc32)cc(OC)c1OC`: the EC50 in series [1], in [4], in series [6], in [7], in series [9] and in series [10] was more than 100 µM throughout. The EC50 in [11] was more than 100 µM. For the same molecule, the CC50 at 96 h in series [2] is 1.9 µM. Moreover, the CC50 in series [3] amounted to 70 µM; in series [5], 40 µM; in series [8], 80 µM.

For `CC(CC(=O)O)n1nnc2ccc([N+](=O)[O-])cc21` (stereo not drawn), the concentration for a half-maximal effect (EC50) in [1], in series [4], in series [6], in series [7], in [9] and in series [10] was more than 100 µM each time. Moreover, the half-maximal effective concentration (EC50) in series [11] is more than 100 µM. Besides, the CC50 at 96 h in series [2] was more than 100 µM. Further, the CC50 in [3], in series [5] and in series [8] was more than 100 µM each time.

Consider `Clc1cc2nn(C3CCCO3)nc2cc1Cl` (stereo not drawn), for which the CC50 at 96 h in series [2] is more than 100 µM. The CC50 in series [3] and in series [5] was more than 100 µM each time. For the same molecule, the EC50 in series [7], in series [10] and in series [11] was more than 100 µM throughout.

For the molecule `COc1cc(C(=O)OCCCn2nnc3ccccc32)cc(OC)c1OC`, the EC50 in [1], in [4], in [6], in series [7], in series [9] and in [10] was more than 100 µM in each case. In series [11], the EC50 was more than 100 µM. Further, the CC50 at 96 h in series [2] was more than 100 µM. Also, the figures for the cytotoxic concentration (CC50) in [3], in series [5] and in [8] were more than 100 µM, not below 100 µM and 100 µM, respectively.

For the molecule `COc1cc(C(=O)OCCCn2nc3ccccc3n2)cc(OC)c1OC`, the EC50 in series [1], in series [4], in series [6], in series [7], in series [9] and in series [10] was more than 100 µM in each case. Besides, the EC50 in series [11] is more than 100 µM. Also, the cytotoxic concentration (CC50) at 96 h in series [2] is more than 100 µM. Besides, the half-maximal cytotoxic concentration (CC50) in series [3], in series [5] and in [8] was more than 100 µM each time.

For `CN(C)c1cccc(C(=O)OCCn2nnc3ccccc32)c1`, the EC50 in series [1], in series [4], in [6], in series [7], in [9] and in series [10] was more than 100 µM each time. For the same molecule, in series [11], the EC50 is more than 100 µM. In series [2], the 50% cytotoxic concentration (CC50) at 96 h stood at 65 µM. Besides, the 50% cytotoxic concentration (CC50) in [3] is more than 100 µM; in [5] it was not below 100 µM; in series [8] it was not below 100 µM.

`CN1CCN(CCn2nnc3ccccc32)CC1`: the 50% effective concentration (EC50) in series [1], in series [4], in [6], in [7], in series [9] and in series [10] was more than 100 µM in each case. For the same molecule, the EC50 in [11] was more than 100 µM. In addition, the CC50 at 96 h in series [2] was more than 100 µM. Further, the CC50 in series [3], in series [5] and in [8] was more than 100 µM each time.

On to `COc1cc(/C=C/C(=O)OCCn2nc3ccccc3n2)cc(OC)c1OC`, for which the EC50 in [1], in [4], in series [6], in series [7], in [9] and in series [10] was more than 100 µM each time. Besides, the half-maximal effective concentration (EC50) in series [11] is more than 100 µM. In series [2], the half-maximal cytotoxic concentration (CC50) at 96 h was not below 100 µM. In addition, the 50% cytotoxic concentration (CC50) in series [3], in series [5] and in series [8] was more than 100 µM in each case.

Turning to `COc1cc(/C=C/C(=O)OCCn2nnc3ccccc32)cc(OC)c1OC`, the 50% effective concentration (EC50) in series [1], in series [4], in series [6], in series [7], in [9] and in [10] was more than 100 µM each time. Also, in series [11], the EC50 is more than 100 µM. For the same molecule, the CC50 at 96 h in series [2] came to 45 µM. The CC50 in series [3] is more than 100 µM; in series [5], 70 µM; in [8], more than 100 µM.

`Clc1c(Cl)c(Cl)c2c(nnn2C2CCCO2)c1Cl` (stereo not drawn): the CC50 at 96 h in series [2] came out at 95 µM. Moreover, the concentration giving a half-maximal response (EC50) in [10] was more than 100 µM.

Turning to `CN(C)C(=O)Cn1nnc2ccccc21`, the EC50 in series [1], in series [4], in series [6], in series [7], in series [9] and in series [10] was more than 100 µM in each case. Moreover, in series [11], the 50% effective concentration (EC50) is more than 100 µM. Further, the cytotoxic concentration (CC50) at 96 h in series [2] was more than 100 µM. Moreover, the cytotoxic concentration (CC50) in [3], in series [5] and in series [8] was more than 100 µM each time.

On to `Cc1cc2nnn(C3CCCO3)c2cc1C` (stereo not drawn), for which, in series [2], the CC50 at 96 h is more than 100 µM. Besides, the cytotoxic concentration (CC50) in [3] and in series [5] was more than 100 µM each time. Moreover, the concentration giving a half-maximal response (EC50) in [7], in [10] and in series [11] was more than 100 µM each time.

Regarding `O=C(Cn1nnc2ccccc21)N1CCOCC1`, the 50% effective concentration (EC50) in [1], in series [4], in series [6], in series [7], in [9] and in series [10] was more than 100 µM each time. For the same molecule, the EC50 in series [11] is more than 100 µM. In addition, the CC50 at 96 h in [2] is more than 100 µM. Besides, the half-maximal cytotoxic concentration (CC50) in series [3], in series [5] and in [8] was more than 100 µM in each case.

For `CC(CC(=O)O)n1nc2ccc([N+](=O)[O-])cc2n1` (stereo not drawn), the EC50 in series [1], in series [4], in series [6], in series [7], in [9] and in series [10] was more than 100 µM in each case. Moreover, in series [11], the EC50 is more than 100 µM. In addition, the CC50 at 96 h in series [2] was more than 100 µM. Besides, the half-maximal cytotoxic concentration (CC50) in series [3], in series [5] and in [8] was more than 100 µM each time.

Turning to `NNC(=O)Cn1nnc2ccccc21`, the EC50 in series [1], in series [4], in [6], in series [7], in series [9] and in [10] was more than 100 µM each time. Besides, in series [11], the EC50 is more than 100 µM. The CC50 at 96 h in [2] was more than 100 µM. For the same molecule, the CC50 in series [3], in [5] and in series [8] was more than 100 µM each time.

Regarding `CN(C)C(=O)Cn1nc2ccccc2n1`, the EC50 in series [1], in series [4], in series [6], in series [7], in [9] and in series [10] was more than 100 µM in each case. Moreover, in [11], the half-maximal effective concentration (EC50) is more than 100 µM. Further, the CC50 at 96 h in series [2] was more than 100 µM. Further, the CC50 in [3], in series [5] and in series [8] was more than 100 µM throughout.

(Values after ChEMBL document CHEMBL3734667 (Bioorg Med Chem, 2015).)
